Experimental findings from publication PMC10174618, “Monoterpenoid aryl hydrocarbon receptor allosteric antagonists protect against ultraviolet skin damage in female mice” (Nature Communications, 2023) are described below.

What all share (experiment): biochemical
Common to all, as to set-up: KINOMEscan scanMAX active site-directed competition binding assay, percent of control, 468 kinases
Common to all, as to settings: competition binding, percent of control

For assay [1], the target named is BMPR2 (Homo sapiens, UniProt Q13873). Summed up:
(§1)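 KINOMEscan active site-directed competition binding assay against 468 human kinases with 100 μM S-carvone. Binding expressed as % of control, with 35% of control as the inhibition threshold.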

For assay [2], the target named is DAPK2 (Homo sapiens, UniProt Q9UIK4). Put shortly:
as §1

Assay [3] has as its target DYRK1B (Homo sapiens, UniProt Q9Y463). Put shortly: as §1
For assay [4], the target named is EPHA3 (Homo sapiens, UniProt P29320). Put shortly: as §1
Chain of EPHA3 (P29320 whole entry): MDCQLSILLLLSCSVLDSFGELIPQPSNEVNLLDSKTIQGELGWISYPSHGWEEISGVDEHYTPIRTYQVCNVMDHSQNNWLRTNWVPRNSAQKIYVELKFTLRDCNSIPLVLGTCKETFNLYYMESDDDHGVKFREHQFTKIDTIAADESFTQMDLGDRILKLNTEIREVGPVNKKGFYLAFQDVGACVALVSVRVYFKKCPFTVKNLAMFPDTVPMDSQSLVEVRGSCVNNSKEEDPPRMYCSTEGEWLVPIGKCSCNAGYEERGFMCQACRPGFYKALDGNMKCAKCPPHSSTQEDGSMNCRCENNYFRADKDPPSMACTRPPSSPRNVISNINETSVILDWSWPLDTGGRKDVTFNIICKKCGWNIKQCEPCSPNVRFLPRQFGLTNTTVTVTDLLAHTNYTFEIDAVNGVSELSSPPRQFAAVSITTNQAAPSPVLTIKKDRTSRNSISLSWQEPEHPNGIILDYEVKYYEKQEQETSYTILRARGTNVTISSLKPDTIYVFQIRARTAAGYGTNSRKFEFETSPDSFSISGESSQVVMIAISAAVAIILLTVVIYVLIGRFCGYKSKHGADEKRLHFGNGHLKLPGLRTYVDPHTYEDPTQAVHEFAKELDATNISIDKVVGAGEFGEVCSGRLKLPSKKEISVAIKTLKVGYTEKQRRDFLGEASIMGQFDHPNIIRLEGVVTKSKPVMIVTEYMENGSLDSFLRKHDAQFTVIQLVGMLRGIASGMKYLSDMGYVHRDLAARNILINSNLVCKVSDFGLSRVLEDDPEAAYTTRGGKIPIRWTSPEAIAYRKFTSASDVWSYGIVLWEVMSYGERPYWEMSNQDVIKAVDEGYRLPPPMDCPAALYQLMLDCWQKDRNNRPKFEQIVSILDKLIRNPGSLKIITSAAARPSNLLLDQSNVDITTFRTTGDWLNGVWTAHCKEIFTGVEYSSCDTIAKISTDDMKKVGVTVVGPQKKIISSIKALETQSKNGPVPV
Assay [5] deals with ERBB2 (Homo sapiens, UniProt P04626). Summed up: as §1
The target of assay [6] is FLT3(K663Q) (Homo sapiens, UniProt P36888, K663Q). Summed up: as §1
Assay [7] concerns the target IRAK1 (Homo sapiens, UniProt P51617). Summed up:
as §1

Assay [8] has as its target T1, LKB1 (Homo sapiens, UniProt Q15831).
T1 construct: gene STK11
Put shortly: as §1

The target of assay [9] is MAP4K2 (Homo sapiens, UniProt Q12851). Put shortly:
as §1

In assay [10] the target is MAP4K5 (Homo sapiens, UniProt Q9Y4K4). Summed up: as §1
Assay [11] concerns the target T2, MINK (Homo sapiens, UniProt Q8N4C8).
T2 construct: gene MINK1
Put shortly: as §1

For assay [12], the target named is MKNK2 (Homo sapiens, UniProt Q9HBH9). Put shortly:
as §1

For assay [13], the target named is PHKG2 (Homo sapiens, UniProt P15735). Summed up: as §1
Chain of PHKG2 (P15735 whole entry): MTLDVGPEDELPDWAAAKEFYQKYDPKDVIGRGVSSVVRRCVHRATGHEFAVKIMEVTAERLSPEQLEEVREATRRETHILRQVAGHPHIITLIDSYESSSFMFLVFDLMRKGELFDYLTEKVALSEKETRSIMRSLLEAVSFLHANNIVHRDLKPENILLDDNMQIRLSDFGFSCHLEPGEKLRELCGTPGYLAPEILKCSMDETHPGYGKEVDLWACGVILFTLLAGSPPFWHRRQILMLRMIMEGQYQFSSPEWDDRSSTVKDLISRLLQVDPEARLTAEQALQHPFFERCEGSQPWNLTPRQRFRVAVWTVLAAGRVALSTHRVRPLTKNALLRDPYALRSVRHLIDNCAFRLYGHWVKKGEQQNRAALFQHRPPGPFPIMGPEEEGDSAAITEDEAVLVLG
Assay [14] addresses PIK3CA(M1043I) (Homo sapiens, UniProt P42336, M1043I). Summed up: as §1
Assay [15] concerns the target T3, S6K1 (Homo sapiens, UniProt P23443).
T3 construct: gene RPS6KB1
Put shortly: as §1

Assay [16] has as its target SNRK (Homo sapiens, UniProt Q9NRH2). Summed up:
as §1

Assay [17] deals with STK16 (Homo sapiens, UniProt O75716). Put shortly:
as §1

For assay [18], the target named is STK36 (Homo sapiens, UniProt Q9NRP7). Summed up:
as §1

The target of assay [19] is TYRO3 (Homo sapiens, UniProt Q06418). Summed up:
as §1

Assay [20] concerns the target T4, VEGFR2 (Homo sapiens, UniProt P35968).
T4 construct: gene KDR
Summed up:
as §1

Assay [21] addresses T5, VPS34 (Homo sapiens, UniProt Q8NEB9).
T5 construct: gene PIK3C3
Summed up:
as §1

For assay [22], the target named is T6, p38-gamma (Homo sapiens, UniProt P53778).
T6 construct: gene MAPK12
Put shortly:
as §1

T5 sequence (Q8NEB9 whole entry): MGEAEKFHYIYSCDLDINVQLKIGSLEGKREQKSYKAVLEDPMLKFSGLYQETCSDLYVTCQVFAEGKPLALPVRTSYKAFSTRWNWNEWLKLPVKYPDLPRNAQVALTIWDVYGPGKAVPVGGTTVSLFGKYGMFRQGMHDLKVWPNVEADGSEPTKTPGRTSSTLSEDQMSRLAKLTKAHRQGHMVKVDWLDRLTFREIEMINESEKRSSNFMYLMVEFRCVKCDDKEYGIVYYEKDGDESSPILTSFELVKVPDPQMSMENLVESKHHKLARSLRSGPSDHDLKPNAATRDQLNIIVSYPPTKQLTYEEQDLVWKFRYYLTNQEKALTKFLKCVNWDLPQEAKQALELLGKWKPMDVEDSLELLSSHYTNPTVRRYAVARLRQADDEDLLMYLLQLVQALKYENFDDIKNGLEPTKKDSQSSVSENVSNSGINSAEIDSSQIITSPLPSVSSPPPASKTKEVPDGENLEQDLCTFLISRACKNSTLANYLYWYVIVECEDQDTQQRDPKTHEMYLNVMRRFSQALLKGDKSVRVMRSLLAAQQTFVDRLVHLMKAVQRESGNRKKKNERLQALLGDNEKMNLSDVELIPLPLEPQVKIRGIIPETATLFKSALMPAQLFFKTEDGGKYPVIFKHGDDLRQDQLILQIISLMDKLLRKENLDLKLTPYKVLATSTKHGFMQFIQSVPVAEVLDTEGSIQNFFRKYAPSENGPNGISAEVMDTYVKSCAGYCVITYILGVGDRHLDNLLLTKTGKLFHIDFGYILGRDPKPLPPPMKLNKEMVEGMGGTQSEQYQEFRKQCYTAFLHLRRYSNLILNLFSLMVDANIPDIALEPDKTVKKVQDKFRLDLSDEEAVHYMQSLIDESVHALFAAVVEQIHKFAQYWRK
Chain of STK36 (Q9NRP7 whole entry): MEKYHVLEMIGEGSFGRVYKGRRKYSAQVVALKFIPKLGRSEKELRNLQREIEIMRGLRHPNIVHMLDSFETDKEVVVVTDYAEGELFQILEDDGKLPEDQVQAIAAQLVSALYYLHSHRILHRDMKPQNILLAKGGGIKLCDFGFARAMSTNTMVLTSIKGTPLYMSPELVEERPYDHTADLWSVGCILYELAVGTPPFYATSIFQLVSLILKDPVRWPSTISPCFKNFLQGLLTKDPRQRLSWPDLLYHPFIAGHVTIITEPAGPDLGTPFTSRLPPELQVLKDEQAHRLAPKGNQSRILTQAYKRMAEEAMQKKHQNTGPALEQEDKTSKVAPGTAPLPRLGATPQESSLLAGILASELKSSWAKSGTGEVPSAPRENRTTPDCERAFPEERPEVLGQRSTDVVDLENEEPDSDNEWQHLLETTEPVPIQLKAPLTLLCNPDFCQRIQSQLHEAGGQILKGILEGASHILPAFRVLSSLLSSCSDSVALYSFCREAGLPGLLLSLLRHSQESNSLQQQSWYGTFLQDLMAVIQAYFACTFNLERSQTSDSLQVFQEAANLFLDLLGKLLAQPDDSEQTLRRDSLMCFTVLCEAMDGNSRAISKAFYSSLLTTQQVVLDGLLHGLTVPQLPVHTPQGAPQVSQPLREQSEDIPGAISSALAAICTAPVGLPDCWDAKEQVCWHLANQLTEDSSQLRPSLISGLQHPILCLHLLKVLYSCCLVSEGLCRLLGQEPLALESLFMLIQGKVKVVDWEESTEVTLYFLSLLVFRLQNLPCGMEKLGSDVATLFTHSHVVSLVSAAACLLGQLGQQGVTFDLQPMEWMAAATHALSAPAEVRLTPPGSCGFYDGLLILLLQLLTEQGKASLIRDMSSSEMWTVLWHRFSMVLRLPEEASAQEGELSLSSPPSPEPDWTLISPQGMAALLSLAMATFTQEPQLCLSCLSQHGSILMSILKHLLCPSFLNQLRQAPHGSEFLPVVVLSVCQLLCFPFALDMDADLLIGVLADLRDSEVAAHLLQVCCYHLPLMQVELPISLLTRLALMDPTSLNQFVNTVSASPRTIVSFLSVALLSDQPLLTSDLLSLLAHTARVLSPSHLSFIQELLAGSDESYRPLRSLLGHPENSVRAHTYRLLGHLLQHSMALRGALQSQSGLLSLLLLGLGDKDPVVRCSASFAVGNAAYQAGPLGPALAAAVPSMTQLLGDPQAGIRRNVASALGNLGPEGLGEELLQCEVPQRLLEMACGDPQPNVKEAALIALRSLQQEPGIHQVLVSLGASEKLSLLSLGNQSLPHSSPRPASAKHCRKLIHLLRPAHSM
Chain of MAP4K2 (Q12851 whole entry): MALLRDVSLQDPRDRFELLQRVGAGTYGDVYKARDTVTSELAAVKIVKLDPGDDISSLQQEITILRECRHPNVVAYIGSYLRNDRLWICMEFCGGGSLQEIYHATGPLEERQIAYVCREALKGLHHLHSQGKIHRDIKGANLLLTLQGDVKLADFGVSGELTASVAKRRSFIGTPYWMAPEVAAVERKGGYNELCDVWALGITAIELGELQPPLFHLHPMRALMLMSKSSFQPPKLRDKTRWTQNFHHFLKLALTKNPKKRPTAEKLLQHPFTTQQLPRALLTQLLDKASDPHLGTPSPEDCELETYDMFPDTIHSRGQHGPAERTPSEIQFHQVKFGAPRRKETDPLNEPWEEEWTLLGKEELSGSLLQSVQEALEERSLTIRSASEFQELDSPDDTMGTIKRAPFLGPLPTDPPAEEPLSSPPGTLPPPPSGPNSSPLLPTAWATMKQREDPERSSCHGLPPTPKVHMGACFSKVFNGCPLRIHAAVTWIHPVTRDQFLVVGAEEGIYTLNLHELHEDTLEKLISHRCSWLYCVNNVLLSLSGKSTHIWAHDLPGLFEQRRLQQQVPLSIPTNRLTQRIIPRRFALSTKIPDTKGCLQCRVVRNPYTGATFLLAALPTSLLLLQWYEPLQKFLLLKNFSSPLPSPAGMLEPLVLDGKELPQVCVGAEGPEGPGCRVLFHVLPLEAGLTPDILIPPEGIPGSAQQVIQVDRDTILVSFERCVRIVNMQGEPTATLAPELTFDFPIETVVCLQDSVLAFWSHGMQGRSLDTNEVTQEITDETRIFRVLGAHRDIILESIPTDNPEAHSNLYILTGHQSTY
Chain of DYRK1B (Q9Y463 whole entry): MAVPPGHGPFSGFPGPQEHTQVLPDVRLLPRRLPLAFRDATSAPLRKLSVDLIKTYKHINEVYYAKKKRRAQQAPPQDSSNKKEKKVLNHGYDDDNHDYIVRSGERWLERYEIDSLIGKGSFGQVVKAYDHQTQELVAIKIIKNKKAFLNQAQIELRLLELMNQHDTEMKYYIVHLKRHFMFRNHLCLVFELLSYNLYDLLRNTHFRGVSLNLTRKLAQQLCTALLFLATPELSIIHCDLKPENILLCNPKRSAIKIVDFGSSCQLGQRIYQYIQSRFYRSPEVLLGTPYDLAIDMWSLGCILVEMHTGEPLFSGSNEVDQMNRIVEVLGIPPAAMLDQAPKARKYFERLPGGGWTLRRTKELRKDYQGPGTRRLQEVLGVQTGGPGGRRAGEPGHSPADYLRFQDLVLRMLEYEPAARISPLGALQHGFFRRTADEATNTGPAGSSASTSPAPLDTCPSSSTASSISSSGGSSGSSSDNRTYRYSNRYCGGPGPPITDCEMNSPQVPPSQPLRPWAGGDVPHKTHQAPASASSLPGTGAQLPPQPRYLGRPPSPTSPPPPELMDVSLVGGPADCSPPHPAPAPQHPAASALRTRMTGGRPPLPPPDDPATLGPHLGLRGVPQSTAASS

Consider `C=C(C)[C@H]1CC=C(C)C(=O)C1` [S-carvone], for which the remaining binding at 100 µM turned out to be 79% in assay [1]; 79% in assay [2]; 100% in assay [3]; 100% in [4]; 83% in assay [5]; 95% in assay [6]. Further, the remaining binding at 100 µM in assay [7] is 65%; in assay [8], 50%; in [9], 94%; in assay [10], 85%; in assay [11], 72%; in [12], 82%. In addition, the remaining binding at 100 µM in assay [13] was found to be 84%; in assay [14], 83%; in assay [15], 93%; in [16] it was 75%; in assay [17], 90%; in assay [18] it was 69%. The remaining binding at 100 µM in [19] was determined as 87%; in [20], 60%; in assay [21] it was 64%; in assay [22], 72%.
